According to article PMC11091243, “PD-L1 targeted peptide demonstrates potent antitumor and immunomodulatory activity in cancer immunotherapy” (Frontiers in Immunology, 2024):
Residues, ends and D or L forms follow the SMILES beside them. No end group written: not given here. *: point of attachment. FITC = O=C1OC2(c3ccc(O)cc3Oc3cc(O)ccc32)c2ccc(NC(=S)*)cc21

Assays:
[1] = molecular target: T1, PD-1/PD-L1 binding (Homo sapiens, UniProt Q9NZQ7); assay: ELISA competition of peptides with PD-1 for binding to PD-L1; details: n = 3, effect increases with peptide concentration
T1 construct: PD-1: 10377-H08H
Protocol: After seven phages were grown and purified, the solution was diluted 10 times to produce eight gradients. To ascertain the phage’s affinity for PD-L1, an ELISA test was run. Briefly, 96-well plates were filled with 150 µL of PD-L1 ([…]) in assay diluent (BioLegend, San Diego, CA), and incubated at 4°C overnight. 5% BSA in water was used to block the wells for two hours at 4°C. Following washing, 100 µL of phage diluent was added to each well, and they were shaken for two hours at room temperature. The wells were then treated with HRP-conjugated anti-M13 antibody at dose of 1:5000. With 100 µL of HRP substrate, the reaction was observed, and the OD410 was determined. By deducting the OD value of each phage binding to BSA-coated wells from the OD value of that phage binding to PD-L1, the specific binding of each phage to PD-L1 was computed. Three duplicate runs of this assay were made. GraphPad Prism 6 software was used to compute each phage binding affinity by nonlinear regression and convert it to a Scatchard plot. ELISA was used to evaluate the candidate peptides capacity to inhibit PD1/PD-L1 binding. The subsequent stages were the same as those previously outlined. Following incubation, OD410 was determined by goat anti-rabbit monoclonal antibody that had been HRP-labeled and rabbit anti-human PD-L1 protein monoclonal antibody.
To assess the effect of PPL-C peptide interference, PD-L1 binding to PD-1 was investigated using ELISA and cell-based analysis. For the ELISA, 100 μL of mouse PD-L1 in PBS was coated in each well of a 96-well plate and incubated the plate at 4°C overnight. On the second day, 1% BSA in PBST was used to block the plate. Each well was then filled with 200 nmol/L biotinylated PD-1 and FITC-labeled PPL-C peptides (at final concentrations of 40, 20, 10, 5, or 2.5 μmol/L) before 1.5 hours incubating at room temperature. After two PBST washes, the relative FITC fluorescence intensity was measured using a Cytation 3 instrument. […] After two PBST washes, the Cytation 3 device was used to detect PE fluorescence intensity. […] Samples were analyzed by flow cytometry.

[2] = test system: splenic lymphocyte subsets of CT26-bearing Balb/c mice; assay: Flow cytometry of spleen lymphocytes of CT26-bearing mice after treatment; type: in vivo; details: CT26-bearing Balb/c mice, 14 days after treatment; Figure 5D
Protocol: (§1) The mice’s tumor volumes were measured by calipers after they were randomly allocated to various treatment groups. Every day tumor volumes were measured along axes (a and b) that are orthogonal to one another, and they were estimated by the equation tumor volume = π/6 × a × b^2. After the tumor was established (approximately 7 days), each group was subcutaneously injected with PPL-C (6 or 11 mg/kg), control peptide (11 mg/kg), endotoxin-free PD-L1 antibody (200 μg), or control antibody, following specific treatment procedures outlined in the flow chart. The Kaplan-Meier technique was used to determine survival differences for each group, and the log-rank test using the survival R package version 2.38-3 was applied to get the overall p-value.
To differentiate lymphocytes, spleen monocytes were separated via isodensity centrifugation. For flow cytometry evaluation, cell-surface and intracellular staining was achieved through reagents from BD Biosciences or Biolegend, following previously described protocols. Re-suspending the 1× 10^6 cells in 100 μL of PBS before incubating them with the appropriate antibodies. Data were collected using a BD Biosciences FACSCalibur flow cytometer, Germany, and analyzed using FlowJo 7.6 software, USA. Based on scatter signals and 7-Amino-actinomycin D fluorescence, dead cells, and cell debris were removed from the study.

[3] = test system: CT26 tumor; type: in vivo, mouse; details: reduced dose, s.c. around the tumor every day or every other day, n = 6, P<0.001
Protocol: The investigators conducting the animal studies were not blinded. […] The mice were then randomized into different treatment groups.
as §1

T1 sequence (Q9NZQ7 19-239 limits assumed): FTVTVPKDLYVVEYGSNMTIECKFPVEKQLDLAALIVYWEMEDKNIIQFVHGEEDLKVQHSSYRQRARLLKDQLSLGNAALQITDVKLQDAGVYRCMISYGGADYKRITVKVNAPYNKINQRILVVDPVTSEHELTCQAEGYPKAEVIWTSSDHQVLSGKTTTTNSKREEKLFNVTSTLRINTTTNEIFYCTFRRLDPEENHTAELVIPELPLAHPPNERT

Row | Compound | Competition with PD-1 to bind PD-L1 (blocking of PD-L1/PD-1) [1] | Percentage of NK cells in spleen (CD49b/Nkp46, upper right quadrant) [2] [%] | Survival time of CT26 tumor-bearing mice [3] [days]
1 | CC[C@H](C)[C@H](NC(=O)[C@H](Cc1c[nH]c2ccccc12)NC(=O)[C@H](CO)NC(=O)[C@@H](NC(=O)[C@H](Cc1c[nH]cn1)NC(=O)[C@@H](N)CO)[C@@H](C)O)C(=O)N[C@@H](CC(C)C)C(=O)N[C@@H](Cc1ccc(O)cc1)C(=O)NCC(=O)N[C@@H](CCC(=O)O)C(=O)N[C@H](C(=O)NCC(=O)N[C@@H](Cc1c[nH]c2ccccc12)C(=O)NCC(=O)NCC(=O)NCC(=O)N[C@@H](CO)C(=O)N[C@@H](CCCCNC(=S)Nc1ccc2c(c1)C(=O)OC21c2ccc(O)cc2Oc2cc(O)ccc21)C(N)=O)[C@@H](C)O [PL-8] (H-SHTSWILYGETGWGGGSK(FITC)-NH2; N-terminus assumed) | blocked moderately |  | 
2 | SHESWLPAYVLGSGGGSK-NH2 [PL-20] | blocked moderately |  | 
3 | SMQYADHPVNTGGGGSK-NH2 [Control peptide, scrambled control peptide, reference compound] |  | 10.80 | 53
